Source: patent US11141371B2, “Extracts of Nannochloropsis sp. and their applications” (Cutech SRL, priority 2014, dated 2021)

Legend:
[1] = system: ex-vivo cultured human skin; assay: Melanogenesis in ex-vivo human skin culture (melanin content, Fontana-Masson staining); assay type: cell-based
Procedure: The adopted culture medium was a modified William-E, and it was renewed at day three of the tissue culture. […] On a daily basis, 4 μl of these extract preparations were applied topically to the cultured skin samples, while the control group received the same quantity of the pure DMSO. After six days of organ culture, histological sections were prepared from the skin samples, and quantitative changes of melanin content were investigated by adopting the Fontana-Masson staining technique. The variation in melanin content was estimated by image analysis of the microphotographs of histological sections of skin.

[2] = system: human sebaceous glands (hSGs); assay: Sebum (normalized total lipids) of ex-vivo cultured human sebaceous glands; assay type: cell-based; details: 5 μM
IL-1α = IL-1α release by ex-vivo skin stimulated with 2% SDS (ELISA); assay type: cell-based, human; details: 2% SDS stimulus, lenitive treatment 10 μM; Table 7

With `CC1=C(/C=C/C(C)=C/C=C/C(C)=C/C(=O)O)C(C)(C)CCC1` [Retinoic ac., Retinoic acid] the “Melanin content as % ratio of the control group performance” value (“Melanin content as % ratio” below) ([1]; 10 μM, third donor (Table 5)) was 82.4% and the “Melanin content as % ratio” value ([1]; 100 μM, third donor (Table 5)) was 88.3%.

For `COc1cc(CNC(=O)CCCC/C=C/C(C)C)ccc1O` [Capsaicin], the “Sebum in hSGs as % ratio of the control group value” (“Sebum in hSGs as % ratio” below) ([2]; another donor (Table 11)) was 66.5%, the “Sebum in hSGs as % ratio” value ([2]; another donor (Table 12)) was 91.9% and the “Sebum in hSGs as % ratio” value ([2]; another donor (Table 13)) was 45.6%.

In the case of `O=c1cc(CO)occ1O` [KA, Kojic acid], the “Melanin content as % ratio” value ([1]; 0.1%, Table 6) is reported as 83.2%.

In the case of `C[C@@H]1C[C@H]2[C@@H]3CCC4=CC(=O)C=C[C@]4(C)[C@@]3(F)[C@@H](O)C[C@]2(C)[C@@]1(O)C(=O)CO` [Dexam., dexamethasone], the IL-1α (IL-1α) is reported as 48.6 pg/mL and the “IL-1α release [%], SDS group as reference (100%)” value (IL-1α) is reported as 92.2%.
